Holding throughout (format): biochemical
For one assay, the target named is T1, FLT (ITD) (Homo sapiens, UniProt P36888).
T1 sequence (P36888 1-993): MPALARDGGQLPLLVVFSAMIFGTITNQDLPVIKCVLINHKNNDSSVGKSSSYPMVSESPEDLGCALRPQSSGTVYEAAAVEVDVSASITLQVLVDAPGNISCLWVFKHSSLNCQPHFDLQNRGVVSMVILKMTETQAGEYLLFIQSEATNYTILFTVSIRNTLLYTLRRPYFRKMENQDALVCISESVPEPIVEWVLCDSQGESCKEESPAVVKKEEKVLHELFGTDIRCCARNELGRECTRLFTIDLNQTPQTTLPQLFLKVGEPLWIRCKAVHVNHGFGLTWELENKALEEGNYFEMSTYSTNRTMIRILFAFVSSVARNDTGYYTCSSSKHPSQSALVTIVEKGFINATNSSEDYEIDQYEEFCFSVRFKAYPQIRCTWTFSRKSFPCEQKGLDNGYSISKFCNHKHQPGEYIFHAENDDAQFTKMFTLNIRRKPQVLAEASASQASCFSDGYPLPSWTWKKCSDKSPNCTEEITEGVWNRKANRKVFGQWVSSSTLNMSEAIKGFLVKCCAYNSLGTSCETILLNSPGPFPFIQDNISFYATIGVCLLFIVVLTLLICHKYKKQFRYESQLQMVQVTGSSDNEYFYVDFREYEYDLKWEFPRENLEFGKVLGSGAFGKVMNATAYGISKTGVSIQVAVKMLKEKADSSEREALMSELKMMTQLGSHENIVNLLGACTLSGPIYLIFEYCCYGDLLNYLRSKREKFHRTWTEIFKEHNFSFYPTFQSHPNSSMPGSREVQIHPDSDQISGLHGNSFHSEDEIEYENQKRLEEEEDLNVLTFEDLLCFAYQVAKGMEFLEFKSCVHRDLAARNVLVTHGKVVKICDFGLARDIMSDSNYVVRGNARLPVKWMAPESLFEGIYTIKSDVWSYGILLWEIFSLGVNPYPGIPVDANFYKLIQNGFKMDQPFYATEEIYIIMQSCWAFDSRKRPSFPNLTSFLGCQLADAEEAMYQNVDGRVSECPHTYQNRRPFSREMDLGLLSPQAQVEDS
Put plainly: FLT (ITD) enzyme activity (IC50). The conditions noted are these: read-out: FLT (ITD) IC50. The source says: (§1) Experimental Example 1. Measurement of FLT3 and FLT Enzyme Activity
(§2) Changes in FLT3 and FLT enzyme activities by treatment with the quinazoline derivatives of the following Table 1 according to the present invention were confirmed by IC50.

The target in a further assay is T2, FLT3 (Homo sapiens, UniProt P36888).
T2 sequence (P36888 27-993): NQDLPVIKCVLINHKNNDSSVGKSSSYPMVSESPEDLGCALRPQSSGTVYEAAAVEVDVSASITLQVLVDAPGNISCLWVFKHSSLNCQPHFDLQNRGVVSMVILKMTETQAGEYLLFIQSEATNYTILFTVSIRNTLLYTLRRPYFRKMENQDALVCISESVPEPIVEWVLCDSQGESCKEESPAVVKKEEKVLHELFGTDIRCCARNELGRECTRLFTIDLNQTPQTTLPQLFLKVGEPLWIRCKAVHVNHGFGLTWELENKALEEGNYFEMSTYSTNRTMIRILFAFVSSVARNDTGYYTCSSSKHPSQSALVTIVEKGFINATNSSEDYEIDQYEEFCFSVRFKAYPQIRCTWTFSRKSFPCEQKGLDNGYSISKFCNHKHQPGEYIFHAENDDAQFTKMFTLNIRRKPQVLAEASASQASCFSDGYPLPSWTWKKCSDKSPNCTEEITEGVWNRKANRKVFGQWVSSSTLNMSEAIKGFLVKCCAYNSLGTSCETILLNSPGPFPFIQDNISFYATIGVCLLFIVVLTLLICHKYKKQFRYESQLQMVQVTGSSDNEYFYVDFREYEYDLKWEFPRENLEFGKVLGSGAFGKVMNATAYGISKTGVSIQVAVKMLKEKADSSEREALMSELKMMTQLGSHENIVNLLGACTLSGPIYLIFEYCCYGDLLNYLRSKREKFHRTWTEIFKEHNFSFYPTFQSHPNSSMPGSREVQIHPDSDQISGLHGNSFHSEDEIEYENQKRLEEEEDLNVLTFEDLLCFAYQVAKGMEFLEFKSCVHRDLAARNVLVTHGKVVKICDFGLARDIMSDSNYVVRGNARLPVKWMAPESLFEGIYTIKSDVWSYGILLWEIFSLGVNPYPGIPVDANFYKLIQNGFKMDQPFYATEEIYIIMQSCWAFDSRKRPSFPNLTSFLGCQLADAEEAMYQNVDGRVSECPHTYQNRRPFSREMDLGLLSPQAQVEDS
Nature of the assay: FLT3 enzyme activity (IC50). The conditions noted are these: read-out: FLT3 IC50.
Source text: as §1, §2

For another assay, the target named is RIPK3 (Homo sapiens, UniProt Q9Y572). Put plainly: Kinase panel screening. To be noted: read-out: IC50 (nM), data of GW5074, control GW5074 instead of staurosporine. Here is the method: Next, kinase panel screening for Compound 7d was investigated for 36 different kinases at a single dose of 10 μM (FIG. 1 and Table 3).
RIPK3, sequence (Q9Y572 whole entry, species assumed): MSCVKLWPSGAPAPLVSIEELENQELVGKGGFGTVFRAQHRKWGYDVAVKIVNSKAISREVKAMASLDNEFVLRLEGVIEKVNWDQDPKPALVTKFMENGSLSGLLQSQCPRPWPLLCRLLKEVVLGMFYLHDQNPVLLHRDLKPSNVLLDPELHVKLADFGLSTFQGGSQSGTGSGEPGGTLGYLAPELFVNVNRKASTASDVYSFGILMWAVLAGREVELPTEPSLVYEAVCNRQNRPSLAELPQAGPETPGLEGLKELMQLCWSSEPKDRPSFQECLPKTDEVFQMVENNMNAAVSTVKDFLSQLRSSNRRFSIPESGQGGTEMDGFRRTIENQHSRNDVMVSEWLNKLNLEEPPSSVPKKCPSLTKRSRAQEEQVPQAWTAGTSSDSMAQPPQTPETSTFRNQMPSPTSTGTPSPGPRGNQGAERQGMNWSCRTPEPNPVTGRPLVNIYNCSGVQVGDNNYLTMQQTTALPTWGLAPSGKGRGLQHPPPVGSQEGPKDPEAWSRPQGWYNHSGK
A further assay addresses ERK1 (Homo sapiens, UniProt P27361). Nature of the assay: Kinase panel screening. To be noted: control SCH772984 instead of staurosporine.

Structures are written as SMILES.

ERK1, sequence (P27361 whole entry, species assumed): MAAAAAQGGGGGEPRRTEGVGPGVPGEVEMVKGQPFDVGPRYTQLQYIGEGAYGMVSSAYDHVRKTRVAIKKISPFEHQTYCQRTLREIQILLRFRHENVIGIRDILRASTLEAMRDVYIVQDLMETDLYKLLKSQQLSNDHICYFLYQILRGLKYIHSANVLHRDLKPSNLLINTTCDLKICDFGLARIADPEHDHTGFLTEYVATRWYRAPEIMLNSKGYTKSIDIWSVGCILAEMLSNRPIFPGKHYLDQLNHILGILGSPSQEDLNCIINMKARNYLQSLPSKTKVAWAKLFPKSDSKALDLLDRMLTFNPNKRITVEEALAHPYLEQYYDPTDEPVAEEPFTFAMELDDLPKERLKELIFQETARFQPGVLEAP

The term IC50 denotes the concentration at which inhibition is half-maximal. As for `Cc1oncc1C(=O)Nc1ccc2cnc(-c3ccc(N4CCOCC4)c(C(F)(F)F)c3)nc2c1` [Compound 7a, 5-methyl-N-(2-(4-morpholino-5-(trifluoromethyl)phenyl)quinazolin-7-yl)isoxazole-4-carboxamide], the IC50 at FLT (ITD) and at FLT3 was more than 10 µM each time. For `Cc1oncc1C(=O)Nc1ccc2cnc(-c3cc(N4CCOCC4)cc(C(F)(F)F)c3)nc2c1` [Compound 7b, 5-methyl-N-(2-(3-morpholino-5-(trifluoromethyl)phenyl)quinzolin-7-yl)isoxazole-4-carboxamide], the IC50 at FLT (ITD) and on FLT3 was 3 to 10 µM throughout. As to `Cc1cn(-c2cc(-c3ncc4ccc(NC(=O)c5cnoc5C)cc4n3)cc(C(F)(F)F)c2)cn1` [Compound 7c, 5-methyl-N-(2-(3-(4-methyl-1H-imidazol-1-yl)-5-(trifluoromethyl)phenyl)quinazolin-7-yl)isoxazole-4-carboxamide], the IC50 at FLT (ITD) and on FLT3 was less than 3 µM each time. Consider `CCN1CCN(Cc2cc(-c3ncc4ccc(NC(=O)c5cnoc5C)cc4n3)cc(C(F)(F)F)c2)CC1` [Compound 7e, N-(2-(3-((4-ethylpiperazin-1-yl)methyl)-5-(trifluoromethyl)phenyl)quinazolin-7-yl)-5-methylisoxazole-4-carboxamide], for which the results for the IC50 on FLT (ITD) and at FLT3 were 3 to 10 µM and less than 3 µM, respectively. On the same counts, the results for `Cc1oncc1C(=O)Nc1ccc2cnc(-c3cc(F)cc(C(F)(F)F)c3)nc2c1` [Compound 7f, N-(2-(3-fluoro-5-(trifluoromethyl)phenyl)quinazolin-7-yl)-5-methylisoxazole-4-carboxamide] are more than 10 µM and more than 10 µM. The matching figures for `Cc1oncc1C(=O)Nc1ccc2cnc(-c3ccc(Cl)c(C(F)(F)F)c3)nc2c1` [Compound 7g, N-(2-(4-chloro-3-(trifluoromethyl)phenyl)quinazolin-7-yl)-5-methylisoxazole-4-carboxamide]: more than 10 µM and more than 10 µM. The matching figures for `Cc1oncc1C(=O)Nc1ccc2cnc(-c3cnn(-c4ccccc4)c3C(F)(F)F)nc2c1` [Compound 7h, 5-methyl-N-(2-(1-phenyl-5-(trifluoromethyl)-1H-pyrazol-4-yl)quinazolin-7-yl)isoxazole-4-carboxamide]: more than 10 µM and more than 10 µM. Turning to `Cc1oncc1C(=O)Nc1ccc2cnc(-c3cccc(Cl)c3)nc2c1` [Compound 7i, N-(2-(3-chlorophenyl)quinazolin-7-yl)-5-methylisoxazole-4-carboxamide], the IC50 at FLT (ITD) and at FLT3 was more than 10 µM in each case. For the compound `COc1ccc(/C=C/c2ncc3ccc(NC(=O)c4cnoc4C)cc3n2)cc1` [Compound 7j, (E)-N-(2-(4-methoxystyryl)quinazolin-7-yl)-5-methylisoxazole-4-carboxamide], the IC50 on FLT (ITD) was more than 10 µM; at FLT3, 3 to 10 µM. Consider `Cc1oncc1C(=O)Nc1ccc2cnc(/C=C/c3ccc(Cl)cc3)nc2c1` [Compound 7k, (E)-N-(2-(4-chlorostyryl)quinazolin-7-yl)-5-methylisoxazole-4-carboxamide], for which the IC50 at FLT (ITD) and at FLT3 was more than 10 µM in each case. For the compound `Cc1oncc1C(=O)Nc1ccc2cnc(-c3cc(C(C)(C)C)on3)nc2c1` [Compound 7l, N-(2-(5-(tert-butyl)isoxazol-3-yl)quinazolin-7-yl)-5-methylisoxazole-4-carboxamide], the IC50 on FLT (ITD) and at FLT3 was more than 10 µM throughout. On to `Cc1oncc1C(=O)Nc1ccc2cnc(-c3cc(OC4CCN(C)CC4)cc(C(F)(F)F)c3)nc2c1` [Compound 7n, 5-methyl-N-(2-(3-((1-methylpiperidin-4-yl)oxy)-5-(trifluoromethyl)phenyl)quinazolin-7-yl)isoxazole-4-carboxamide], for which the IC50 at FLT (ITD) and on FLT3 was 3 to 10 µM throughout.

Consider `CC(=O)N1CCC(c2ncc3ccc(NC(=O)c4cnoc4C)cc3n2)CC1` [Compound 7o, N-(2-(1-acetylpiperidin-4-yl)quinazolin-7-yl)-5-methylisoxazole-4-carboxamide], for which the IC50 on FLT (ITD) and at FLT3 was more than 10 µM each time.

Regarding `Cc1oncc1C(=O)Nc1ccc2cnc(-c3ccncc3)nc2c1` [Compound 7p, 5-methyl-N-(2-(pyridin-4-yl)quinazolin-7-yl)isoxazole-4-carboxamide], the IC50 at FLT (ITD) and on FLT3 was more than 10 µM each time. With `Cc1oncc1C(=O)Nc1ccc2cnc(-c3ccccn3)nc2c1` [Compound 7q, 5-methyl-N-(2-(pyridin-2-yl)quinazolin-7-yl)isoxazole-4-carboxamide], the IC50 on FLT (ITD) and at FLT3 was more than 10 µM throughout. For the compound `Cc1oncc1C(=O)Nc1ccc2cnc(-c3ccc(Cl)c(Cl)c3)nc2c1` [Compound 7r, N-(2-(3,4-dichlorophenyl)quinazolin-7-yl)-5-methylisoxazole-4-carboxamide], the IC50 on FLT (ITD) and on FLT3 was more than 10 µM in each case. Regarding `Cc1oncc1C(=O)Nc1ccc2cnc(Cc3ccc(F)cc3)nc2c1` [Compound 7s, N-(2-(4-fluorobenzyl)quinazolin-7-yl)-5-methylisoxazole-4-carboxamide], the IC50 on FLT (ITD) and on FLT3 was more than 10 µM in each case. Consider `Cc1oncc1C(=O)Nc1ccc2cnc(Cc3ccccc3C(F)(F)F)nc2c1` [Compound 7t, 5-methyl-N-(2-(2-(trifluoromethyl)benzyl)quinazolin-7-yl)isoxazole-4-carboxamide], for which the IC50 at FLT (ITD) and at FLT3 was more than 10 µM each time. Consider `Cc1oncc1C(=O)Nc1ccc2cnc(-c3ccc4ccccc4c3)nc2c1` [Compound 7u, 5-methyl-N-(2-(naphthalen-2-yl)quinazolin-7-yl)isoxazole-4-carboxamide], for which the IC50 at FLT (ITD) and on FLT3 was more than 10 µM in each case.

Turning to `Cc1oncc1C(=O)Nc1ccc2cnc(-c3ccc4c(c3)CCO4)nc2c1` [Compound 7v, N-(2-(2,3-dihydrobenzofuran-5-yl)quinazolin-7-yl)-5-methylisoxazole-4-carboxamide], the IC50 on FLT (ITD) and at FLT3 was more than 10 µM throughout.

On to `COc1ccc(CCc2ncc3ccc(NC(=O)c4cnoc4C)cc3n2)cc1` [Compound 7w, N-(2-(4-methoxyphenethyl)quinazolin-7-yl)-5-methylisoxazole-4-carboxamide], for which the IC50 at FLT (ITD) and at FLT3 was more than 10 µM in each case. Consider `O=C1Nc2ccc(I)cc2/C1=C/c1cc(Br)c(O)c(Br)c1` [GW5074, reference compound], for which the IC50 at RIPK3 stood at 1650 nM. In turn, `O=C(Nc1ccc2[nH]nc(-c3ccncc3)c2c1)[C@@H]1CCN(CC(=O)N2CCN(c3ccc(-c4ncccn4)cc3)CC2)C1` [SCH772984, reference compound] showed an IC50 against ERK1 of 4.47 nM.

Source of the values: US12617758B2, “Quinazoline derivative having FLT3 inhibitory activity, and use thereof” (INDUSTRY-UNIVERSITY COOPERATION FOUNDATION HANYANG …, priority 2020, dated 2026).
